Reference: patent US7601739B2, “Compounds having antiestrogenic and tissue selective estrogenic properties, and compounds with anti-androgenic properties for treatment of prostate cancer and androgen receptor dependent diseases” (Virgina Commonwealth University, priority 2006, dated 2009)
“Also recorded” adds a separate entry of the source.

Target: T1, hERα (Homo sapiens, UniProt P03372)
T1 construct: the full length hERα was inserted into pGAD-GAL4 and pGBD-GAL4 vectors; expressed in transfected cells; host or cells: S. cerevisiae Y190 transformed with pGBT-hER (pGBKT7) and pGAD-hER (pGADT7)
T1 sequence (P03372 1-595) 1: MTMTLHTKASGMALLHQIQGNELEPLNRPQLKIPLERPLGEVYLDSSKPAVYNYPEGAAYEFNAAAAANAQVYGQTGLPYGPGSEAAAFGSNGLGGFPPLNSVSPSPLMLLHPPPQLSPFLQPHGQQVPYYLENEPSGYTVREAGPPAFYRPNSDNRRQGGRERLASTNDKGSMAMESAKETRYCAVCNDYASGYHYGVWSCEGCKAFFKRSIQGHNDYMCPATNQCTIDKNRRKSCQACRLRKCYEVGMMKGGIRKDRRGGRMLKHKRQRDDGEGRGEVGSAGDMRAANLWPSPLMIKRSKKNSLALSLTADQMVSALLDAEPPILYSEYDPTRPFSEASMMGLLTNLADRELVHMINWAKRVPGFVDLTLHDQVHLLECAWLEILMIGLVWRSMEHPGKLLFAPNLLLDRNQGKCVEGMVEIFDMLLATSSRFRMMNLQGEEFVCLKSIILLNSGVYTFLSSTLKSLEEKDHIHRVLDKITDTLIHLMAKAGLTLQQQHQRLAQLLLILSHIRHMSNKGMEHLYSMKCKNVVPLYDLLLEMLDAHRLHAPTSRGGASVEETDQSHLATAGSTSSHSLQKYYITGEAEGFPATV
T1 sequence (P03372 1-595) 2: T1 sequence (P03372 1-595) 1
Assay: Yeast two-hybrid and filter lift assay of hERα dimerization
Assay type: cell-based
Procedure: The transformed yeasts with yeast two-hybrid vectors were cultured in synthetic medium lacking trytophan, and leucine. […] After that, the membranes were soaked in 0.4 ml Z-buffer/Xgal (60 mM Na2HPO4, 40 mM NaH2PO410 mM KCl, 1 mM MgSO4, 0.1% SDS, 50 mM -mercaptoethanol, 20 mM Xgal). The pictures of the results were taken within 2 and 3 hours after the -galactosidase assay was processed.
Dimerization of estrogen receptor plays an essential role in regulating estrogen receptor's functions including DNA binding, transactivation, and coactivator recruitment. In this study, yeast two hybrid and filter lift assays were used to determine the ability of compounds 2 and 6 to interrupt the dimerization of hERα. For setting up yeast two hybrid assay, the full length hERα was inserted into pGAD-GAL4 and pGBD-GAL4 vectors. In pGBD-GAL4, hERα was fused to the GAL4 DNA binding domain through its N terminus. In pGAD-GA14, hERα was fused to the GAL4 activation domain through its N terminus. When the dimerization of hERα occurs mainly through its C terminus, the GAL4 DNA binding domain binds to the repeated GAL4 response element located in front of the β-gal reporter gene and the whole complex, GAL4-BD/hERα/hERα/GAL4-AD, turns on the synthesis of the product of β-gal reporter gene. […] Filter lift assay in which X-gal was used, was employed to qualitatively determine the activity of β-galactosidase.

- blue color change of yeast colony in combination with estrogen (estrogen's colony as reference, more blue = less inhibition): slight blue color change
SMILES: CCCCNC(=O)CCCCCCCCCCOCC1Cc2ccccc2CN1C(=O)c1cccc(O)c1 (stereo not drawn) [Compound 6]
- inhibitory activity against hERα dimerization in combination with estrogen (combined with estrogen): inhibitory activity is higher than tamoxifen's; also recorded: obvious inhibitory activity
- induction of hERα dimerization, compound alone (tested alone): did not induce hERα dimerization; also recorded: do not promote the dimerization of hERα
